pIC50: −log10 of the molar value. Marks after values point to notes of the source that are not given here.
How the values were obtained:
human Y1 receptor = molecular target: T1, human Y1 receptor (Homo sapiens, UniProt P25929); test: [125I]NPY receptor binding assay on SK-N-MC cells
T1 construct: host or cells: SK-N-MC cells (thawed, needle-disrupted cells)
T1 sequence (P25929 1-384): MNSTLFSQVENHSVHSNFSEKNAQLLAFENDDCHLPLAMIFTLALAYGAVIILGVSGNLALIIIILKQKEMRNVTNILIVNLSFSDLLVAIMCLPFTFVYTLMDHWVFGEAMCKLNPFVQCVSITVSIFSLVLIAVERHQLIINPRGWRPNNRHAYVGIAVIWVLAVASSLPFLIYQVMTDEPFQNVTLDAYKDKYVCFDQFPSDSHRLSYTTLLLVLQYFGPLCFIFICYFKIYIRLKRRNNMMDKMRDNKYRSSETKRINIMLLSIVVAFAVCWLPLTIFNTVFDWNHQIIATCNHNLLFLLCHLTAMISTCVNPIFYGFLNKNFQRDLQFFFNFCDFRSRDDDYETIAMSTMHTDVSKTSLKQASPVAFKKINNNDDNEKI
Experimental: (§1) SK-N-MC cells expressing the human Y1 receptor and SMS-MSN cells expressing the human Y2 receptor were obtained from the ATCC. They were cultured in 1:1 DMEM:Ham's F12 medium (ICN) containing 10% fetal calf serum, 0.1% non-essential amino acids, 0.2 mM glutamine, and 0.056% sodium bicarbonate. Confluent cells were harvested in scraping and pellets were stored at −80° C. On the day of use cells were thawed, washed once in binding buffer salts, passed several times through a 22 ga. needle, and the protein content was assayed using bicinchoninic acid (BCA kit, Pierce).
(§2) Just before use, plates were filtered and washed twice with 50 mM Tris-HCI pH 7.4/0.1% BSA. […] Binding was terminated by filtration. Filters were washed twice by rapid filtration with […] volumes of 50 mM Tris-HCI pH 7.4/0.1% BSA at 2° C., and counted on an LKB gamma counter. Specific binding was analysed by non-linear regression using a single-site fitting function (Graphpad Prism). Non-specific binding was defined by binding in the presence of 1 μM competitor.

Y2-like receptors = molecular target: T2, Y2-like receptors (Rattus norvegicus, UniProt Q9ERC0); test: Inhibition of the vagally evoked increase in pulse interval in anaesthetised rats (prejunctional activity); type: in vivo; details: compared with Ac[Leu28,Leu31]NPY(24-36)
T2 construct: from tissue; host or cells: anaesthetised Wistar rat, cardiac vagal nerve endings (in vivo)
T2 sequence (Q9ERC0 1-381): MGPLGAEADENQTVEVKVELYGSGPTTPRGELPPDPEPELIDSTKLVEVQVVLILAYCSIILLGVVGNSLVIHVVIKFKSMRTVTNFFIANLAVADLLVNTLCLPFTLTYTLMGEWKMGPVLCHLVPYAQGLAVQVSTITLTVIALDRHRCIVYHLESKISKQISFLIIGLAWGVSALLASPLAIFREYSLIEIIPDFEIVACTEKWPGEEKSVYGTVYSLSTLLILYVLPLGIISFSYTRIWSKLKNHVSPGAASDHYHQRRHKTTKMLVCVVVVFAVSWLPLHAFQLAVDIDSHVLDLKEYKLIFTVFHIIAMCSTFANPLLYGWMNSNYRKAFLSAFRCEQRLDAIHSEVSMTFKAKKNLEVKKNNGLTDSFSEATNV
Experimental: (§3) Experiments were carried out on adult rats (Wistar) of both sexes (250-350 g), anaesthetised with sodium pentobarbitone (Nembutal, Boehringer-Ingleheim; 60 mg/kg, i.p.). The trachea was cannulated and the animal artificially ventilated. The femoral vein was cannulated for administration of peptides and further doses of anaesthetic. The left femoral artery was cannulated to record arterial pressure. Both vagus nerves were cut. […] The frequency was chosen to increase pulse interval by approximately 100 ms, a submaximal effect on this variable. The electrocardiogram was measured using needle electrodes and monitored on one channel of an osciloscope. Pulse interval (the period between successive beats of the heart) was recorded beat-by-beat by triggering from ECG. Pulse interval and arterial pressure were recorded on the pen recorder.
Dose-response curves were constructed from group data for all rats. Because of the long time-course of action of the peptides tested, not all peptides were given to each rat. Usually however, each rat received neuropeptide Y and two other peptides.
(§4) As an indication of prejunctional activity two parameters were measured; the maximum percent inhibition of the increase in pulse interval evoked by stimulation of the vagus nerve following injection of peptide and the time to half recovery of this effect (T50). For pressor action, an indicator of postjunctional activity, two parameters were also measured; the peak pressor response following injection of peptide and the duration of the increase in blood pressure. These indices give a reliable measure of the actions of a peptide at pre- and postjunctional sites, and have been used previously in this laboratory for this purpose; Potter et al., 1989; Potter et al., 1991). Results were analysed using a one-way ANOVA.

Y1 receptors = molecular target: T3, Y1 receptors (Rattus norvegicus, UniProt P21555); test: Pressor response (increase in blood pressure) in anaesthetised rats (postjunctional activity); type: in vivo
T3 construct: from tissue; host or cells: anaesthetised Wistar rat, vasculature (in vivo)
T3 sequence (P21555 1-382): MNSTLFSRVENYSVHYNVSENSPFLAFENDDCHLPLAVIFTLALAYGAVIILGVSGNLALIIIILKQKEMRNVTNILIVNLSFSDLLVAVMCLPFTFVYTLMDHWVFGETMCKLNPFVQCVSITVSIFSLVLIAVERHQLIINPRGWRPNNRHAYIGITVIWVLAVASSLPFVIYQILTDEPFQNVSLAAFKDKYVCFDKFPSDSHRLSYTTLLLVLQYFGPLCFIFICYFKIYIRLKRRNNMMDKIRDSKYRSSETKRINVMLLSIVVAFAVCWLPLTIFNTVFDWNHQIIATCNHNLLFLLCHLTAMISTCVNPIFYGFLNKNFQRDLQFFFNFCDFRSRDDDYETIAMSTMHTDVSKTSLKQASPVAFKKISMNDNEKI
Experimental: as §3, with “The” for “The frequency was chosen to increase pulse interval by approximately 100 ms, a submaximal effect on this variable. The”
Dose-response curves were constructed from group data for all rats. Because of the long time-course of action of the peptides tested, not all peptides were given to each rat.
as §4, with “These indices give a reliable measure of the actions of a peptide at pre- and postjunctional sites, and have been used previously in this laboratory for this purpose; Potter et al., 1989; Potter et al., 1991).” left out

human Y2 receptor = molecular target: T4, human Y2 receptor (Homo sapiens, UniProt P49146); test: [125I]NPY receptor binding assay on SMS-MSN cells
T4 construct: host or cells: SMS-MSN cells (thawed, needle-disrupted cells)
T4 sequence (P49146 1-381): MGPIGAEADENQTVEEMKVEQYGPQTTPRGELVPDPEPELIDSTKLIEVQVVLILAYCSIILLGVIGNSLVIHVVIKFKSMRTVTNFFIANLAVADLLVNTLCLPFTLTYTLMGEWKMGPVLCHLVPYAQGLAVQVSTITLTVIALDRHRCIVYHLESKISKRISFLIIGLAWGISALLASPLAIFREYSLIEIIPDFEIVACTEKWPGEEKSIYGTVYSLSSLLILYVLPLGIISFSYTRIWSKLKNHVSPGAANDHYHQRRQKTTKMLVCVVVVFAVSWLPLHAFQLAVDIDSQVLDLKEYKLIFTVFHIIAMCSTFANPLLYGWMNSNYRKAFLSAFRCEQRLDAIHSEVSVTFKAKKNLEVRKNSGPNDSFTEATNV
Experimental: as §1, §2

[1] = test system: Y2-like receptors mediating inhibition of transmitter release from renal nerves; test: Increase of renal vascular resistance elicited by renal sympathetic nerve stimulation; type: in vivo, dog; details: 40 nmol dose; FIG. 1
Experimental: Experiments were carried out in six, adult, mongrel dogs of both sexes weighing between 18 and 26 kg. The dogs were anaesthetised with a bolus injection of sodium pentobarbitone (36 mg/kg intravenous; Nembutal, Boehringer Ingelheim) and then maintained on an infusion (2-3 mg/kg/hr). The animal was artificially ventilated, maintained at constant temperature and blood pressure and heart rate were monitored continuously.
The left kidney was exposed retroperitoneally and renal arterial blood flow was monitored continuously (Pernow & Lundberg, 1989a), using a transonic flow probe (Transonic System Inc., N.Y.). Postganglionic nerves to the kidney were isolated, cut and placed over bipolar, platinum electrodes for stimulation (1-10 Hz, 5-10 V, 1-5 msec).
The renal nerve was stimulated over a range of frequencies (1-10 Hz) for 30 secs and a frequency-response curve constructed. The responses were measured at the peak change in flow. […] Responses were reported as change in vascular resistance.

[2] = molecular target: T5, human neuropeptide Y Y1 receptor (Homo sapiens, UniProt P25929); details: fibroblast cells; cited from earlier work
T5 sequence (P25929 1-384): T1 sequence (P25929 1-384)

[3] = molecular target: T6, neuropeptide Y Y1 receptor type (Homo sapiens, UniProt P25929); details: SK-N-MC cells; cited from earlier work
T6 construct: host or cells: SK-N-MC human cells
T6 sequence (P25929 1-384): T1 sequence (P25929 1-384)

[4] = molecular target: T7, neuropeptide Y Y2 receptor subtype (Homo sapiens, UniProt P49146); details: SMS-KAN cells; cited from earlier work
T7 construct: host or cells: SMS-KAN human neuroblastoma cells
T7 sequence (P49146 1-381): T4 sequence (P49146 1-381)

[5] = anaesthetised rats, †: No response to 10 nmole dose

Substance | Increase in BP (rel to NPY) (Y1 receptors; [5]) | also measured
Ac-ARAALNAATRQRY-NH2 [Ac[A24,26,27,30,31,L28]NPY24-36] | 0† | pIC50 (human Y1 receptor): < 6.00; Inhibition of the effect of vagal stimulation on heart rate, in words (Y2-like receptors): enhanced in vivo activity at Y2 receptors
Ac-ARHALNLLTRQRY-NH2 [Ac[A24,A27,L28,L31]NPY24-36] | 0† | Affinity for NPY Y2 receptors, in words (human Y2 receptor): high affinity for NPY Y2 receptors; Inhibition of the effect of vagal stimulation on heart rate, in words (Y2-like receptors): enhanced in vivo activity at Y2 receptors; Direct effect on the circulation (Y1 receptors; 40 nmol dose): no direct effect on the circulation; Inhibition of the increase of renal vascular resistance elicited by renal nerve stimulation [1]: almost completely inhibited the effect of nerve stimulation
Ac-ARHYLNLLTRQRY-NH2 [Ac[A24,L28,L31]NPY24-36] | 0† | pIC50 (human Y2 receptor): 7.72
Ac-LAHYLNLLTRQRY-NH2 [Ac[A25,L28,L31]NPY24-36] | 0† | –
Ac-LAHYRNLLTRQRY-NH2 [Ac[A25,R28,L31]NPY24-36] | 0† | –
Ac-LRAYLNLLTRQRY-NH2 [Ac[A26,L28,L31]NPY24-36] | 0† | –
Ac-LRHALNLLTRQRY-NH2 [Ac[A27,L28,L31]NPY24-36] | 0† | –
Ac-LRHYANLLTRQRY-NH2 [Ac[A28,L31]NPY24-36] | 0† | –
Ac-LRHYLALLTRQRY-NH2 [Ac[L28,A29,L31]NPY24-36] | 0† | –
Ac-LRHYLNALTRQRY-NH2 [Ac[L28,A30,L31]NPY24-36] | 0† | –
Ac-LRHYLNLATRQRY-NH2 [Ac[L28,A31]NPY24-36] | 0† | –
Ac-LRHYLNLLARQRY-NH2 [Ac[L28,L31,A32]NPY24-36] | 0† | –
Ac-LRHYLNLLTRQRY-NH2 [Ac[L28,L31]NPY24-36] [listing 1 of 2 here] | – | Increase in BP (rel to NPY) (Y1 receptors; rat, in vivo): 0†; Stimulation of the Y1 receptor to induce an increase in cytosolic calcium [2]: did not stimulate; Affinity for the neuropeptide Y Y1 receptor type, in words [3]: no affinity; Affinity for the neuropeptide Y Y2 receptor subtype, in words [4]: significant affinity
Ac-LRHYLNLLTRQRY-NH2 [Ac[L28,L31]NPY24-36] [listing 2 of 2 here] | – | pIC50 (human Y1 receptor): < 7.00
AcNPY24-36 [reference compound] | 0† | –
Ac[A26,27,L28,31]NPY24-36 (Ac-LRAALNLLTRQRY-NH2; ends and bridges not checked) | – | Inhibition of the effect of vagal stimulation on heart rate, in words (Y2-like receptors): enhanced in vivo activity at Y2 receptors
Ac[L28,I30]NPY24-36 (Ac-LRHYLNIITRQRY-NH2; ends and bridges not checked; UniProt P01303 52-64, looked up, variant I28L L30I) | 0† | –

Reference: patent US6696409B1 (priority 1996, dated 2004)
